In patent US20210347785A1, “PREPARATION AND APPLICATION OF AROMATIC COMPOUND HAVING IMMUNOREGULATORY FUNCTION” (SHANGHAI ENNOVABIO PHARMACEUTICALS CO., LTD., priority 2018, published 2021):

target: T1, PD-1/PD-L1 (Homo sapiens, UniProt Q9NZQ7); assay: PD-1/PD-L1 homogeneous time-resolved fluorescence (HTRF) binding assay; conditions: 665 nm/620 nm ratio
T1 construct: purchased Cisbio 63ADK000CPDEC
Text: Test Example 1: Detect the Inhibitory Effect of the Compound to the Binding of PD-1/PD-L1 Protein
The PD-1/PD-L1 homogeneous time-resolved fluorescence method is used to detect the binding ability of the compound with PD-L1.
PD-1/PD-L1 binding assay kit (Cisbio, Cat #63ADK000CPDEC) was chosen, which contains two proteins Tag 1-PD-L1 and Tag 2-PD-1, and two antibodies Anti-Tag1-Eu^3+ and Anti-Tag2-XL 665. The principle of detection was: Anti-tag1-Eu^3+ was used as the donor of HTRF, and Anti-Tag2-XL 665 was used as the acceptor of HTRF. When Tag 1-PD-L1 interacts with Tag 2-PD-1, the added HTRF donor and the acceptor are close to each other. After the donor has received the excitation energy, part of the energy was transferred to the acceptor, thus generating 665 nm emission light. […] The inhibitory effect of the compound can be determined by comparing the ratio of 665 nm/620 nm. Tag 1-PD-L1 was diluted with Diluent buffer (cat #62DLBDDF) to a working concentration of 10 nM, Tag 2-PD-1 was diluted with Diluent buffer to a working concentration of 500 nM, Anti-Tag1-Eu^3+ was diluted with detection buffer (cat #62DB1FDG) at a ratio of 1:100, Anti-Tag2-XL 665 was diluted with detection buffer at a ratio of 1:20, and the compound to be detected was diluted with diluent buffer to a final concentration of 2×. Compound solution (2 μL) was added to each well of a 384-well plate, then Tag 1-PD-L1 (4 μL) and Tag 2-PD-1 (4 μL) were added successively. The mixture was incubated at room temperature for 15 minutes. Then Anti-Tag1-Eu^3+ (5 μL) and Anti-Tag2-XL 665 (5 μL) were added, and the mixture was incubated overnight at room temperature. BioTek Synergy™ Neo2 multifunctional microplate reader was used to detect so as to provide the 665 nm/620 nm ratio. PrismGraphd 5.02 was used to fit the IC50 curve.

T1 sequence (Q9NZQ7 19-238 limits assumed): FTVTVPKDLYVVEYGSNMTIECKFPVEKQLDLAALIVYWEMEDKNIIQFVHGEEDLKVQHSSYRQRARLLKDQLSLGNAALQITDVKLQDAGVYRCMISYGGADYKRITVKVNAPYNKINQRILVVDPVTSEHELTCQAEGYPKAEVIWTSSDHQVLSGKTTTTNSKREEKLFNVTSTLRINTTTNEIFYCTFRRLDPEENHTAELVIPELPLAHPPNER

IC50	Structure (SMILES)
< 100 nM	COc1nc(-c2cccc(-c3cccc(Nc4nccc5sc(CN6CCC[C@@H]6C(=O)O)nc45)c3Cl)c2Cl)cc(C)c1CNC[C@@H]1CCC(=O)N1 [Compound 47]
< 100 nM	COc1nc(-c2cccc(-c3cccc(Nc4nccc5sc(CN6C[C@@H](O)C[C@H]6C(=O)O)nc45)c3Cl)c2Cl)cc(C)c1CNC[C@@H]1CCC(=O)N1 [Compound 48]
< 100 nM	COc1nc(-c2cccc(-c3cccc(Nc4nccc5sc(CN6CCC(C)(C(=O)O)CC6)nc45)c3Cl)c2Cl)cc(C)c1CNC[C@@H]1CCC(=O)N1 [Compound 49]
< 100 nM	COc1nc(-c2cccc(-c3cccc(Nc4nccc5sc(CN[C@H]6CC[C@H](C(=O)O)CC6)nc45)c3Cl)c2Cl)cc(C)c1CNC[C@@H]1CCC(=O)N1 [Compound 50]
< 100 nM	COc1nc(-c2cccc(-c3cccc(Nc4nccc5sc(CN[C@H]6CC[C@@H](C(=O)O)CC6)nc45)c3Cl)c2Cl)cc(C)c1CNC[C@@H]1CCC(=O)N1 [Compound 51]
< 100 nM	COc1nc(-c2cccc(-c3cccc(Nc4nccc5sc(CN6CCC(CC(=O)O)C6)nc45)c3Cl)c2Cl)cc(C)c1CNC[C@@H]1CCC(=O)N1 (stereo partly drawn) [Compound 52]
< 100 nM	COc1nc(-c2cccc(-c3cccc(Nc4nccc5sc(CN6CCC(CC(=O)O)CC6)nc45)c3Cl)c2Cl)cc(C)c1CNC[C@@H]1CCC(=O)N1 [Compound 53]
< 100 nM	COc1cc(-c2cccc(-c3cccc(Nc4nccc5sc(CN6CCC(C(=O)O)CC6)nc45)c3Cl)c2Cl)cc(C)c1CNC[C@@H]1CCC(=O)N1 [Compound 55]
< 100 nM	COc1nc(-c2cccc(-c3cccc(Nc4nccc5sc(CN6CCC(C#N)CC6)nc45)c3Cl)c2Cl)cc(C)c1CNC[C@@H]1CCC(=O)N1 [Compound 56]
